# Experimental data published in PubChem BioAssay AID256 (DTP/NCI, 2004).
# “And” between values parts separate entries of the source, which are not always exact repeats. Equal entries are not always repeated. Toxic doses and inconclusive results are not listed.
# System: CD2F1 mice, L1210 leukemia ip, survival T/C
# Experiment: NCI In Vivo Anticancer Drug Screen. Data for tumor model L1210 Leukemia (intraperitoneal) in CD2F1 (CDF1) mice
# Settings: higher = longer survival
# In short: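 Antitumor effect is scored in animals hosting a serially transplanted tumor. Values compare compound-dosed animals against vehicle-only controls as a simple quotient.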
smiles,measurement,setting,value
C1CN1c1nc(N2CC2)nc(N2CC2)n1,T/C,"endpoint: mean survival time, dose: 0.05 mg/kg/injection, schedule: Q01DX009 (ip), vehicle: saline",100 % of control
same,T/C,"endpoint: mean survival time, dose: 0.06 mg/kg/injection, schedule: Q01DX009 (ip), vehicle: saline",150 % of control
same,T/C,"endpoint: mean survival time, dose: 0.06 mg/kg/injection, schedule: Q03HX008 (ip), vehicle: saline",100 % of control
same,T/C,"endpoint: mean survival time, dose: 0.06 mg/kg/injection, schedule: Q03HX016 (ip), vehicle: saline",95 % of control and 97 % of control
same,T/C,"endpoint: mean survival time, dose: 0.06 mg/kg/injection, schedule: Q03HX024 (ip), vehicle: saline",113 % of control
same,T/C,"endpoint: mean survival time, dose: 0.1 mg/kg/injection, schedule: Q01DX009 (ip), vehicle: saline",107 % of control
same,T/C,"endpoint: mean survival time, dose: 0.12 mg/kg/injection, schedule: Q01DX009 (ip), vehicle: saline",215 % of control and 100 % of control
same,T/C,"endpoint: mean survival time, dose: 0.13 mg/kg/injection, schedule: Q03HX008 (ip), vehicle: saline",110 % of control
same,T/C,"endpoint: mean survival time, dose: 0.13 mg/kg/injection, schedule: Q03HX016 (ip), vehicle: saline",104 % of control and 110 % of control
same,T/C,"endpoint: mean survival time, dose: 0.13 mg/kg/injection, schedule: Q03HX024 (ip), vehicle: saline",124 % of control
same,T/C,"endpoint: mean survival time, dose: 0.2 mg/kg/injection, schedule: Q01DX009 (ip), vehicle: saline",117 % of control
same,T/C,"endpoint: mean survival time, dose: 0.25 mg/kg/injection, schedule: Q01DX005 (ip), vehicle: saline",117 % of control
same,T/C,"endpoint: mean survival time, dose: 0.25 mg/kg/injection, schedule: Q01DX009 (ip), vehicle: saline",109 % of control
same,T/C,"endpoint: mean survival time, dose: 0.25 mg/kg/injection, schedule: Q03HX024 (ip), vehicle: saline",174 % of control
same,T/C,"endpoint: mean survival time, dose: 0.4 mg/kg/injection, schedule: Q01DX009 (ip), vehicle: saline",155 % of control
same,T/C,"endpoint: mean survival time, dose: 0.5 mg/kg/injection, schedule: Q01DX001 (ip), vehicle: saline",114 % of control
same,T/C,"endpoint: mean survival time, dose: 0.5 mg/kg/injection, schedule: Q01DX005 (ip), vehicle: saline",150 % of control
same,T/C,"endpoint: mean survival time, dose: 0.5 mg/kg/injection, schedule: Q01DX007 (ip), vehicle: saline",183 % of control
same,T/C,"endpoint: mean survival time, dose: 0.5 mg/kg/injection, schedule: Q03HX008 (ip), vehicle: saline",185 % of control
same,T/C,"endpoint: mean survival time, dose: 0.5 mg/kg/injection, schedule: Q03HX016 (ip), vehicle: saline",183 % of control
same,T/C,"endpoint: mean survival time, dose: 0.5 mg/kg/injection, schedule: Q03HX024 (ip), vehicle: saline",101 % of control
same,T/C,"endpoint: mean survival time, dose: 0.5 mg/kg/injection, schedule: Q08DX002 (ip), vehicle: saline",107 % of control
same,T/C,"endpoint: mean survival time, dose: 0.5 mg/kg/injection, schedule: Q11DX002 (ip), vehicle: saline",100 % of control
same,T/C,"endpoint: mean survival time, dose: 1.0 mg/kg/injection, schedule: Q01DX001 (ip), vehicle: saline",190 % of control
same,T/C,"endpoint: mean survival time, dose: 1.0 mg/kg/injection, schedule: Q01DX005 (ip), vehicle: saline",86 % of control
same,T/C,"endpoint: mean survival time, dose: 1.0 mg/kg/injection, schedule: Q01DX007 (ip), vehicle: saline",92 % of control
same,T/C,"endpoint: mean survival time, dose: 1.0 mg/kg/injection, schedule: Q03DX003 (ip), vehicle: saline",183 % of control
same,T/C,"endpoint: mean survival time, dose: 1.0 mg/kg/injection, schedule: Q08DX002 (ip), vehicle: saline",204 % of control
same,T/C,"endpoint: mean survival time, dose: 1.0 mg/kg/injection, schedule: Q11DX002 (ip), vehicle: saline",97 % of control
same,T/C,"endpoint: mean survival time, dose: 2.0 mg/kg/injection, schedule: Q01DX001 (ip), vehicle: saline",154 % of control and 157 % of control
same,T/C,"endpoint: mean survival time, dose: 2.0 mg/kg/injection, schedule: Q03DX003 (ip), vehicle: saline",211 % of control
same,T/C,"endpoint: mean survival time, dose: 2.0 mg/kg/injection, schedule: Q08DX002 (ip), vehicle: saline",184 % of control
same,T/C,"endpoint: mean survival time, dose: 2.0 mg/kg/injection, schedule: Q11DX002 (ip), vehicle: saline",100 % of control
same,T/C,"endpoint: mean survival time, dose: 3.0 mg/kg/injection, schedule: Q01DX001 (ip), vehicle: saline",169 % of control and 338 % of control
same,T/C,"endpoint: mean survival time, dose: 4.0 mg/kg/injection, schedule: Q01DX001 (ip), vehicle: saline",120 % of control
same,T/C,"endpoint: mean survival time, dose: 4.0 mg/kg/injection, schedule: Q08DX002 (ip), vehicle: saline",102 % of control
same,T/C,"endpoint: mean survival time, dose: 4.0 mg/kg/injection, schedule: Q11DX002 (ip), vehicle: saline",153 % of control
same,T/C,"endpoint: mean survival time, dose: 62.0 micrograms/kg/injection, schedule: Q01DX009 (ip), vehicle: saline",123 % of control
same,T/C,"endpoint: mean survival time, dose: 125.0 micrograms/kg/injection, schedule: Q01DX009 (ip), vehicle: saline",173 % of control
same,T/C,"endpoint: median survival time, dose: 0.25 mg/kg/injection, schedule: Q01DX009 (ip), vehicle: saline",100 % of control
same,T/C,"endpoint: median survival time, dose: 0.5 mg/kg/injection, schedule: Q01DX009 (ip), vehicle: saline",150 % of control and 185 % of control
same,T/C,"endpoint: median survival time, dose: 1.0 mg/kg/injection, schedule: Q01DX009 (ip), vehicle: saline",121 % of control and 100 % of control
O=C(NCc1ccccc1)c1ccc([N+](=O)[O-])cc1,T/C,"endpoint: mean survival time, dose: 100.0 mg/kg/injection, schedule: Q04DX002 (ip), vehicle: other",97 % of control
same,T/C,"endpoint: mean survival time, dose: 200.0 mg/kg/injection, schedule: Q04DX002 (ip), vehicle: other",101 % of control
same,T/C,"endpoint: mean survival time, dose: 400.0 mg/kg/injection, schedule: Q04DX002 (ip), vehicle: other",97 % of control
N=C(N)c1ccc(N)cc1,T/C,"endpoint: mean survival time, dose: 100.0 mg/kg/injection, schedule: Q04DX003 (ip), vehicle: saline",103 % of control
same,T/C,"endpoint: mean survival time, dose: 200.0 mg/kg/injection, schedule: Q04DX003 (ip), vehicle: saline",101 % of control
